The values below come from patent US20230265247A1, “PROCESS FOR PREPARING POLYIMIDES” (Technische Universität Wien, priority 2020, published 2023).

For series [1] the following is noted: 1 ml distilled water with around 20 to 40% by weight of salt, stirred 15 minutes.
From the text: Those salts with which no clear solution without appreciable amounts of precipitate as a sediment were obtained were referred to as being “insoluble in water.”
A short description of series [2]: Water solubility of the diamines, literature values. In kind it is physicochemical. The note with it: ratio of cited solubilities.
The conditions of series [3]: cited from earlier work.
Where [4] appears, read: salts of 1,2,3,4-butanetetracarboxylic acid.
The mark [5] stands for this setting: salts of tetrahydrofuran-2,3,4,5-tetracarboxylic acid, no = no clear solution.
Where [6] appears, read: salts of 3,3′,4,4′-benzophenonetetracarboxylic acid.
Setting [7] is: salts of 1,2,3,4-cyclopentanetetracarboxylic acid.
[8] abbreviates: salts of 1,2,3,4-cyclobutanetetracarboxylic acid.
Setting [9] is: salts of 1,2,4,5-cyclohexanetetracarboxylic acid.

Read-outs that look alike come from different tables or passages of the source.

In the case of `Nc1n[nH]c(N)n1` [Example V38], in series [1] (setting [4]), the Salt is water-soluble result was “no”. On to `NC1CCC(CC2CCC(N)CC2)CC1.O=C(O)C1OC(C(=O)O)C(C(=O)O)C1C(=O)O` (stereo not shown) [Example V2], for which, in series [1] (setting [5]), the Salt is water-soluble entry is reported as “no”.

Regarding `Nc1cccc(N)n1` [Example V104], in series [1] (setting [6]), the Salt is water-soluble entry is “no”. Regarding `NCC1CCC(CN)CC1.O=C(O)C1OC(C(=O)O)C(C(=O)O)C1C(=O)O` (stereo not shown) [Example B14, Cyclohexane-1,4-bis(methanammonium)-dihydrogen-tetrahydrofuran-2,3,4,5-tetracarboxylate], in series [1] (setting [5]), the Salt is water-soluble result is “yes”. In the case of `NCCCCN.O=C(O)C1CC(C(=O)O)C(C(=O)O)C1C(=O)O` (stereo not shown) [Example V57], in series [1] (setting [7]), the Salt is water-soluble result is recorded as “yes”. Consider “Tricyclo[5.2.1.0^2,6]decane-3(4),8(9)-bis(methanammonium)-dihydrogen-1,2,3,4-cyclobutanetetracarboxylate [Example B22]”, for which the Salt is water-soluble result in series [1] (setting [8]) is reported as “yes”. For the compound `NCC1CC2CC1CC2CN.O=C(O)C1CC(C(=O)O)C(C(=O)O)C1C(=O)O` (stereo not shown) [Example B23, Norbornane bis(methylammonium)-dihydrogen-1,2,3,4-cyclopentanetetracarboxylate], the Salt is water-soluble result in series [1] (setting [7]) is “yes”.

Consider `NCc1cccc(CN)c1` [Example V85], for which, in series [1] (setting [9]), the Salt is water-soluble result was “yes”. With `Nc1cccc(N)n1.O=C(O)C1OC(C(=O)O)C(C(=O)O)C1C(=O)O` (stereo not shown) [Example V9], the Salt is water-soluble result in series [1] (setting [5]) was “no”. Take `CC1CC(CC2CCC(N)C(C)C2)CCC1N.O=C(O)C1OC(C(=O)O)C(C(=O)O)C1C(=O)O` (stereo not shown) [Example B18, 4,4′-Methylene-bis(2-methylcyclohexylammonium)-dihydrogen-tetrahydrofuran-2,3,4,5-tetracarboxylate]: the Salt is water-soluble entry in series [1] (setting [5]) was “yes”. With `NCCCCN.O=C(c1ccc(C(=O)O)c(C(=O)O)c1)c1ccc(C(=O)O)c(C(=O)O)c1` [Example V86], the Salt is water-soluble result in series [1] (setting [6]) is listed as “no”. With `CC(C)(CN)CN.O=C(O)C1OC(C(=O)O)C(C(=O)O)C1C(=O)O` (stereo not shown) [Example B4, 2,2-Dimethylpropane-1,3-diammonium-dihydrogen-tetrahydrofuran-2,3,4,5-tetracarboxylate], in series [1] (setting [5]), the Salt is water-soluble entry was “yes”. As for `NCCCCCCCCCN.O=C(O)C1CC(C(=O)O)C(C(=O)O)C1C(=O)O` (stereo not shown) [Example V63], the Salt is water-soluble entry in series [1] (setting [7]) is listed as “yes”.

For the compound `NCCCCN.O=C(O)C1OC(C(=O)O)C(C(=O)O)C1C(=O)O` (stereo not shown) [Example B2, Butane-1,4-diammonium-dihydrogen-tetrahydrofuran-2,3,4,5-tetracarboxylate], the Salt is water-soluble entry in series [1] (setting [5]) is on record as “yes”. Regarding `NCC1CCCC(CN)C1.O=C(O)C1OC(C(=O)O)C(C(=O)O)C1C(=O)O` (stereo not shown) [Example B13, Cyclohexane-1,3-bis(methanammonium)-dihydrogen-tetrahydrofuran-2,3,4,5-tetracarboxylate], the Salt is water-soluble entry in series [1] (setting [5]) is listed as “yes”.

For `CC1CC(CC2CCC(N)C(C)C2)CCC1N` (stereo not shown) [4,4′-methylene-bis(2-methylcyclohexylamine)], the “water solubility less by a factor, versus 4,4′-methylene-bis(cyclohexylamine)” value in series [2] came out at 45. In series [3] (according to perflavory.com), the “water solubility of the diamine” value was “around 88 mg/l”. Turning to `NCCCCN.O=C(O)C1CC(C(=O)O)C(C(=O)O)CC1C(=O)O` (stereo not shown) [Example V72], the Salt is water-soluble result in series [1] (setting [9]) is on record as “yes”. As for `Cc1ccc(N)cc1N` [Example V7], the Salt is water-soluble result in series [1] (setting [5]) was “no”.

As to `CC1(C)CC(N)CC(C)(CN)C1.O=C(O)C1CC(C(=O)O)C(C(=O)O)CC1C(=O)O` (stereo not shown) [Example V84], in series [1] (setting [9]), the Salt is water-soluble entry is “yes”.

On to `NCCCCN.O=C(O)C1C(C(=O)O)C(C(=O)O)C1C(=O)O` (stereo not shown) [Example V42], for which, in series [1] (setting [8]), the Salt is water-soluble result was “yes”. Turning to `CC1CC(CC2CCC(N)C(C)C2)CCC1N.O=C(c1ccc(C(=O)O)c(C(=O)O)c1)c1ccc(C(=O)O)c(C(=O)O)c1` [Example V97], the Salt is water-soluble entry in series [1] (setting [6]) was “yes”.

Consider `CC1(C)CC(N)CC(C)(CN)C1.O=C(O)C1CC(C(=O)O)C(C(=O)O)C1C(=O)O` (stereo not shown) [Example V69], for which the Salt is water-soluble result in series [1] (setting [7]) was “yes”. Consider “Norbornane bis(methylammonium)-dihydrogen-3,3′,4,4′-benzophenonetetracarboxylate [Example B27]”, for which, in series [1] (setting [6]), the Salt is water-soluble result is “yes”. As for `CC1(C)CC(N)CC(C)(CN)C1.O=C(c1ccc(C(=O)O)c(C(=O)O)c1)c1ccc(C(=O)O)c(C(=O)O)c1` [Example V95], the Salt is water-soluble result in series [1] (setting [6]) is reported as “yes”. For “Tricyclo[5.2.1.0^2,6]decane-3(4),8(9)-bis(methanammonium)-dihydrogen-1,2,4,5-cyclohexanetetracarboxylate [Example B26]”, the Salt is water-soluble result in series [1] (setting [9]) is recorded as “yes”. As for `NCCCCCCCN.O=C(O)C1OC(C(=O)O)C(C(=O)O)C1C(=O)O` (stereo not shown) [Example B7, Heptane-1,7-diammonium-dihydrogen-tetrahydrofuran-2,3,4,5-tetracarboxylate], in series [1] (setting [5]), the Salt is water-soluble result was “yes”.

For `NCCCCCCCCCCCCN.O=C(c1ccc(C(=O)O)c(C(=O)O)c1)c1ccc(C(=O)O)c(C(=O)O)c1` [Example V94], the Salt is water-soluble result in series [1] (setting [6]) is recorded as “no”.

In the case of `NCCCCCN.O=C(O)C1OC(C(=O)O)C(C(=O)O)C1C(=O)O` (stereo not shown) [Example B3, Pentane-1,5-diammonium-dihydrogen-tetrahydrofuran-2,3,4,5-tetracarboxylate], the Salt is water-soluble result in series [1] (setting [5]) was “yes”. For `Cc1cc(-c2ccc(N)c(C)c2)ccc1N` [Example V12], the Salt is water-soluble entry in series [1] (setting [5]) is reported as “no”.

Consider `NC1CCC(N)CC1.O=C(O)C1OC(C(=O)O)C(C(=O)O)C1C(=O)O` (stereo not shown) [Example B12, Cyclohexane-1,4-diammonium-dihydrogen-tetrahydrofuran-2,3,4,5-tetracarboxylate], for which the Salt is water-soluble result in series [1] (setting [5]) is “yes”. Same read-out and setting: the value for `NCCCCCCCCCN.O=C(O)C1OC(C(=O)O)C(C(=O)O)C1C(=O)O` (stereo not shown) [Example B9, Nonane-1,9-diammonium-dihydrogen-tetrahydrofuran-2,3,4,5-tetracarboxylate] was “yes”. As for `NCCCCCCCCCN.O=C(O)C1CC(C(=O)O)C(C(=O)O)CC1C(=O)O` (stereo not shown) [Example V78], the Salt is water-soluble result in series [1] (setting [9]) is “yes”.

On to “Tricyclo[5.2.1.0^2,6]decane-3(4),8(9)-bis(methanammonium)-dihydrogen-3,3′,4,4′-benzophenonetetracarboxylate [Example B28]”, for which, in series [1] (setting [6]), the Salt is water-soluble entry was “yes”.

In the case of “Tricyclo[5.2.1.0^2,6]decane-3(4),8(9)-bis(methanammonium)-dihydrogen-1,2,3,4-cyclopentanetetracarboxylate [Example B24]”, the Salt is water-soluble result in series [1] (setting [7]) is reported as “yes”. Regarding `CC1(C)CC(N)CC(C)(CN)C1.O=C(O)C1C(C(=O)O)C(C(=O)O)C1C(=O)O` (stereo not shown) [Example V54], the Salt is water-soluble result in series [1] (setting [8]) was “yes”. As for `CC(CN)CCCN.O=C(O)C1OC(C(=O)O)C(C(=O)O)C1C(=O)O` (stereo not shown) [Example B6, 2-Methylpentane-1,5-diammonium-dihydrogen-tetrahydrofuran-2,3,4,5-tetracarboxylate], in series [1] (setting [5]), the Salt is water-soluble entry was “yes”. On the same count and under the same terms, the value for `Nc1ccc(Cc2ccc(N)cc2)cc1.O=C(O)C1OC(C(=O)O)C(C(=O)O)C1C(=O)O` (stereo not shown) [Example V11] was “no”.

Turning to `NC1CCC(CC2CCC(N)CC2)CC1` (stereo not shown) [4,4′-methylene-bis(cyclohexylamine)], the “water solubility of the diamine” value in series [3] (cited in Wikipedia) is listed as “about 4 g/l”. In the case of “Tricyclo[5.2.1.0^2,6]decane-3(4),8(9)-bis(methanammonium)-dihydrogen-1,2,3,4-butane-tetracarboxylate [Example B20]”, the Salt is water-soluble entry in series [1] (setting [4]) is on record as “yes”.

For `CC1(C)CC(N)CC(C)(CN)C1.O=C(O)C1OC(C(=O)O)C(C(=O)O)C1C(=O)O` (stereo not shown) [Example B16, Isophorone diammonium-dihydrogen-tetrahydrofuran-2,3,4,5-tetracarboxylate], the Salt is water-soluble result in series [1] (setting [5]) is “yes”. For the compound “Norbornane bis(methylammonium)-dihydrogen-1,2,4,5-cyclohexanetetracarboxylate [Example B25]”, in series [1] (setting [9]), the Salt is water-soluble entry is listed as “yes”. `NCCCCCCCCN.O=C(O)C1OC(C(=O)O)C(C(=O)O)C1C(=O)O` (stereo not shown) [Example B8, Octane-1,8-diammonium-dihydrogen-tetrahydrofuran-2,3,4,5-tetracarboxylate]: in series [1] (setting [5]), the Salt is water-soluble result was “yes”. With `NCc1cccc(CN)c1.O=C(O)C1C(C(=O)O)C(C(=O)O)C1C(=O)O` (stereo not shown) [Example V55], in series [1] (setting [8]), the Salt is water-soluble result is reported as “yes”. Regarding `CC(C)(CN)CN.O=C(c1ccc(C(=O)O)c(C(=O)O)c1)c1ccc(C(=O)O)c(C(=O)O)c1` [Example V88], the Salt is water-soluble result in series [1] (setting [6]) was “yes”.

On to `NCC1CC2CC1CC2CN.O=C(O)C1C(C(=O)O)C(C(=O)O)C1C(=O)O` (stereo not shown) [Example B21, Norbornane bis(methylammonium)-dihydrogen-1,2,3,4-cyclobutanetetracarboxylate], for which the Salt is water-soluble result in series [1] (setting [8]) was “yes”. With `CC(CN)CCCN.O=C(O)C1CC(C(=O)O)C(C(=O)O)C1C(=O)O` (stereo not shown) [Example V60], the Salt is water-soluble entry in series [1] (setting [7]) is on record as “yes”. `Nc1ccc(Cc2ccc(N)cc2)cc1` [Example V39]: the Salt is water-soluble entry in series [1] (setting [4]) is “no”. `NC1CCCC(N)C1.O=C(O)C1OC(C(=O)O)C(C(=O)O)C1C(=O)O` (stereo not shown) [Example B11, Cyclohexane-1,3-diammonium-dihydrogen-tetrahydrofuran-2,3,4,5-tetracarboxylate]: in series [1] (setting [5]), the Salt is water-soluble result is “yes”.
